# PMC7377239, “Cardiovascular Effects of Polychlorinated Biphenyls and Their Major Metabolites” (Environmental Health Perspectives, 2020)
# Counter-ions that a name gives are not always drawn. Like-named read-outs stand apart in the source and are kept apart here.
# Tested on: iCell cardiomyocytes (human iPSC-derived cardiomyocytes)
# Experiment: Intracellular Ca2+ flux / beating parameters in iCell cardiomyocytes (FLIPR tetra), 90 min or 24 h
# Type: cell-based
# Details: Homo sapiens, Cardiomyocyte, 0.00 µM = 100.00; for activity at 0.1 µM: 0.10 µM
# Summary of the method: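 Gelatin-plated iCell cardiomyocytes (5,000/well) were dye-loaded for 2 h at 37 °C, then exposed for 90 min or 24 h to PCBs/metabolites (5× plates at 0.05–500 µM; 0.5% DMSO final) in triplicate. Ca2+ flux was read for 100 s at 8 Hz and 37 °C. Peak height, frequency, spacing CV and decay/rise ratio were vehicle-normalized and fitted with a four-parameter logistic model, with POD set at 1 SD of vehicle.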
# [1] = 1.5 h, read-out: cm.amp.avg.90min
# [2] = 1.5 h, read-out: cm.amp.cv.90min
# [3] = 1.5 h, read-out: cm.decay.rise.90min
# [4] = 1.5 h, read-out: cm.spacing.cv.90min
# [5] = 24 h, read-out: cm.amp.avg.24hrs
# [6] = 24 h, read-out: cm.amp.cv.24hrs
# [7] = 24 h, read-out: cm.decay.rise.24hrs
# [8] = 24 h, read-out: cm.spacing.cv.24hrs
smiles,measurement,setting,value
O=S(=O)(O)Oc1ccc(-c2cccc(Cl)c2)cc1Cl [4-yl PCB 11 sulfate],activity at 0.01 µM,[1],98.2%
same,activity at 0.01 µM,[2],88.2%
same,activity at 0.01 µM,"1.5 h, read-out: cm.bpm.90min",97.8%
same,activity at 0.01 µM,[3],98.1%
same,activity at 0.01 µM,[4],99.6%
same,activity at 0.1 µM,[1],93.1%
same,activity at 0.1 µM,[2],97.2%
same,activity at 0.1 µM,"1.5 h, read-out: cm.bpm.90min",100%
same,activity at 0.1 µM,[3],102%
same,activity at 0.1 µM,[4],99%
same,activity at 1 µM,[1],99.5%
same,activity at 1 µM,[2],116%
same,activity at 1 µM,"1.5 h, read-out: cm.bpm.90min",99.1%
same,activity at 1 µM,[3],99.7%
same,activity at 1 µM,[4],103%
same,activity at 10 µM,[1],96.9%
same,activity at 10 µM,[2],93.4%
same,activity at 10 µM,"1.5 h, read-out: cm.bpm.90min",99.1%
same,activity at 10 µM,[3],98.1%
same,activity at 10 µM,[4],96.5%
same,activity at 100 µM,[1],45.7%
same,activity at 100 µM,[2],62.5%
same,activity at 100 µM,"1.5 h, read-out: cm.bpm.90min",15.1%
same,activity at 100 µM,[3],39.8%
same,activity at 100 µM,[4],107%
same,activity at 0.01 µM,[5],98.1%
same,activity at 0.01 µM,[6],94.2%
same,activity at 0.01 µM,"24 h, read-out: cm.bpm.24hrs",97.4%
same,activity at 0.01 µM,[7],110%
same,activity at 0.01 µM,[8],104%
same,activity at 0.1 µM,[5],78.9%
same,activity at 0.1 µM,[6],34.3%
same,activity at 0.1 µM,"24 h, read-out: cm.bpm.24hrs",46.8%
same,activity at 0.1 µM,[7],51.8%
same,activity at 0.1 µM,[8],46.3%
same,activity at 1 µM,[5],88.9%
same,activity at 1 µM,[6],119%
same,activity at 1 µM,"24 h, read-out: cm.bpm.24hrs",93.6%
same,activity at 1 µM,[7],100%
same,activity at 1 µM,[8],87.1%
same,activity at 10 µM,[5],88.7%
same,activity at 10 µM,[6],119%
same,activity at 10 µM,"24 h, read-out: cm.bpm.24hrs",93.6%
same,activity at 10 µM,[7],104%
same,activity at 10 µM,[8],98.9%
same,activity at 100 µM,[5],0%
same,activity at 100 µM,[6],0%
same,activity at 100 µM,"24 h, read-out: cm.bpm.24hrs",0%
same,activity at 100 µM,[7],0%
same,activity at 100 µM,[8],0%
